Results: US20050256132A1, “Use of ER selective NF-kB inhibitors for the treatment of sepsis” (priority 2003, published 2005)
Where “and” joins values, the source holds several entries; their conditions need not be identical. Equal values may be shown once.

What was measured:
IL-6 = IL-6 expression (ELISA) in Ad5-wt-ERα infected HAECT-1 cells (Table 1); format: cell-based, human
Creatine Kinase = experiment: Creatine kinase expression in Ad5-wt-ERα infected HAECT-1 cells (Table 1); format: cell-based, human; conditions: relative to the maximal stimulation observed with E2
Protocol: T-175 flasks of 100% confluent HAECT-1 cells (immortalized human aortic endothelial cells) were washed with 8 mL of HBSS (HEPES buffered saline solution) and infected for four hours with 6 mL of a 1:10 dilution of Ad5-wt-hERα virus (an adenovirus transfection vector that mediates CMV promoter driven expression of human ERα) in phenol red free Endothelial Cell Basal medium (Clonetics, San Diego Calif., Catalog # CC-3129) containing 0.25% bovine serum albumin (EBM-BSA). After four hours, cells were washed with EBM-BSA and incubated overnight in the same medium. Following overnight incubation, cells were washed with EBM-BSA and infected for 2 hours with 6 mL of a 1:10 dilution of Ad5-3x(NF-κB).Luc virus (Adenovirus luciferase expression vector driven by 3 repeats of the MHC NF-κb site 5′ to the thymidine kinase promoter) in EBM-BSA. […]
ERα infected HAECT-1 cells or control cells were thawed, diluted 42× in warm EBM-BSA, plated into 96-well plates at 0.1 mL/well and incubated for 4 hours at 34° C. […] Luciferase was determined on a Wallac Victor Luminometer (Gaithersburg, Md.) using 10 μL of lysate and mixing with 100 μL of Promega Luciferase Assay reagent. Creatine kinase was determined from the rate of increase in A340 following addition of 100 μL of CK assay reagent (Sigma, cat. No 47-10) to the remainder of the cell lysate. […]

NF-κB = experiment: IL-1β stimulated NF-κB reporter activity in ERα expressing HAECT-1 cells; format: cell-based, human; conditions: ERα expressing HAECT-1 cells, FIG. 1A
Protocol: HAECT-1 cells (Chadwick C C, et al., Proc Natl Acad Sciences, 2005, 102(7): 2543-2548) were cultured in EGM (GIBCO, Rockville, Md.) containing 10% FBS, 1% GlutaMAX and 0.1% Antimycotic-Antibiotic in Falcon T-175 culture flasks at 34° C. in 5% CO2 and infected for four hours with Ad5-wt-ER virus. After overnight recovery, the cells were infected for 2 hours with the Ad5-3x(NFκB).Luc or Ad5-IL6.Luc virus. Compound 67 and 2 ng/ml IL-1 were added to the cells for 15-20 h and the cell lysate was assayed for luciferase activity and evaluated for CK expression (Stanbio Laboratories, Texas). The values are reported as mean±SEM with n=4 from at least 3 independent experiments.

[1] = test system: Pseudomonas aeruginosa 12.4.4; experiment: Neutropenic rat model of Pseudomonas sepsis; format: in vivo, Sprague-Dawley rats
Protocol: The neutropenic rat model of pseudomonas sepsis has been previously described (Opal S M, et al., Shock 15(4):285-290, 2001). The experiments were conducted in specific pathogen-free female, Albino, Sprague-Dawley rats (Charles River Breeding Laboratories, Wilmington, Mass.) weighing 150-200 grams at the beginning of the experiments. Animals were treated with cefamandole (100 mg/kg intramuscularly daily) followed by oral colonization with Pseudomonas aeruginosa 12.4.4 (immunotype 6, A. McManus, San Antonio, Tex.) by orogastric feeding of 10^6 bacterial colony forming units at time 0, 48, and 96 hours.
Cyclophosphamide (Bristol-Myers, Evansville, Ind.) was given intraperitoneally at a dose of 150 mg/kg at time 0, and 50 mg/kg interperitoneally at 72 hours. Animals were followed daily with clinical examination of body temperature using a non-contact, digital, infrared thermometer (Horiba Instruments-Marksen Sciences, Phoenix, Ariz.) and body weight. Compound 67 (50 mg/kg) or corn oil control (n=12 in both groups) was administered orally by orogastric feeding beginning on day 4 after the first dose of cyclophosphamide and continuing for 8 days for the survival study. In an additional set of experiments, compound 1 (50 mg/kg) or control (n=8 in both groups) was administered every other day (day 4, 6, 8) and animals were sacrificed at day 8 for histopathologic studies. The distal 10 centimeters of ileum were resected and used for histopathological examination. The lumen was washed with phosphate buffered saline to remove residual particulate material prior to analysis and fixation. The mucosal surface epithelium was sampled for electromicroscopic studies and placed in gluteraldehyde fixative at the time of sacrifice. A 10 mm segment of ileal tissue was utilized for mucosal mass measurement.
Animals were assessed clinically and pathologically by daily body weight, body temperature, presence of bacteremia, circulating endotoxin levels, and pathologic evidence of damage to the gastrointestinal epithelium and liver by light microscopy and electron microscopy. The investigators performing the animal experiments were not blinded to the treatment assignment; however, an independent pathologist who was unaware of the treatment assignment for each animal performed the light microscopy and electron microscopy interpretation. A pathological injury scale of 0-4 was used to assess the degree of mucosal thinning, ulceration, and disruption.

COc1ccccc1[C@H](c1cccc2ccccc12)[C@@](C)(C#N)C(=O)N1CCC(c2cccc(C(F)(F)F)c2)CC1 [Example 67, (S,S)-3-(2-methoxyphenyl)-2-methyl-3-(1-naphthyl)-2-({4-[3-(trifluoromethyl)phenyl]piperidin-1-yl}carbonyl)propanenitrile]
IC50 (IL-6; Homo sapiens, HAECT1, Ad5-wt-ERα infected HAECT-1 cells, IL-1 stimulated, read-out: Interleukin-6 IC50): 35 nM
Interleukin-6 Efficacy (IL-6; relative to the maximal inhibition observed with E2): 45%
Creatine Kinase Efficacy (Creatine Kinase): 41% and 58%
efficacy compared with E2, NF-κB reporter (NF-κB): 94%
IC50 (NF-κB; Homo sapiens, HAECT1): 122 nM
electron microscopy of small intestinal enterocyte architecture, tight junctions, organelle structure ([1]; 50 mg/kg): greater preservation
prevention of lethality (Kaplan-Meier survival) ([1]; 50 mg/kg orally daily from day 4, FIG. 2): highly effective in the prevention of lethality
small bowel mucosal mass ([1]; 50 mg/kg, p<0.01 vs control, FIG. 4B): 76±21 mg/10 cm segment
levels of bacteremia and endotoxemia ([1]; day 6 after first cyclophosphamide dose, FIG. 3): Reduced levels
histopathologic injury score of gastrointestinal mucosa ([1]; scale 0-4, 50 mg/kg, day 8, p=0.02 vs control, FIG. 4A): 0.6±0.1
